According to ChEMBL document CHEMBL1641457, “The synthesis and biological evaluation of 1-C-alkyl-L-arabinoiminofuranoses, a novel class of α-glucosidase inhibitors” (Bioorg Med Chem Lett, 2011):

Experiments:
Rattus norvegicus = species: Rattus norvegicus; assay: Inhibition of Wistar rat small intestine cellobiase at 1000 uM after 30 mins
[1] = target: T1, Sucrase-isomaltase, intestinal (Rattus norvegicus, UniProt P23739); assay: Inhibition of Wistar rat small intestine sucrase after 30 mins
[2] = target: Lactase/phlorizin hydrolase (Rattus norvegicus) (UniProt Q02401); assay: Inhibition of Wistar rat small intestine lactase at 1000 uM after 30 mins
[3] = target: Lysosomal alpha-glucosidase (Rattus norvegicus) (UniProt Q6P7A9); settings: Wistar, 1000 uM
Description: Inhibition of Wistar rat small intestine maltase at 1000 uM after 30 mins

[4] = target: Sucrase-isomaltase, intestinal (Rattus norvegicus) (UniProt P23739); assay: Inhibition of Wistar rat small intestine isomaltase at 1000 uM after 30 mins
[5] = target: T1, Sucrase-isomaltase, intestinal; assay: Inhibition of Wistar rat small intestine isomaltase after 30 mins

T1 sequence (P23739 1-1013 limits assumed): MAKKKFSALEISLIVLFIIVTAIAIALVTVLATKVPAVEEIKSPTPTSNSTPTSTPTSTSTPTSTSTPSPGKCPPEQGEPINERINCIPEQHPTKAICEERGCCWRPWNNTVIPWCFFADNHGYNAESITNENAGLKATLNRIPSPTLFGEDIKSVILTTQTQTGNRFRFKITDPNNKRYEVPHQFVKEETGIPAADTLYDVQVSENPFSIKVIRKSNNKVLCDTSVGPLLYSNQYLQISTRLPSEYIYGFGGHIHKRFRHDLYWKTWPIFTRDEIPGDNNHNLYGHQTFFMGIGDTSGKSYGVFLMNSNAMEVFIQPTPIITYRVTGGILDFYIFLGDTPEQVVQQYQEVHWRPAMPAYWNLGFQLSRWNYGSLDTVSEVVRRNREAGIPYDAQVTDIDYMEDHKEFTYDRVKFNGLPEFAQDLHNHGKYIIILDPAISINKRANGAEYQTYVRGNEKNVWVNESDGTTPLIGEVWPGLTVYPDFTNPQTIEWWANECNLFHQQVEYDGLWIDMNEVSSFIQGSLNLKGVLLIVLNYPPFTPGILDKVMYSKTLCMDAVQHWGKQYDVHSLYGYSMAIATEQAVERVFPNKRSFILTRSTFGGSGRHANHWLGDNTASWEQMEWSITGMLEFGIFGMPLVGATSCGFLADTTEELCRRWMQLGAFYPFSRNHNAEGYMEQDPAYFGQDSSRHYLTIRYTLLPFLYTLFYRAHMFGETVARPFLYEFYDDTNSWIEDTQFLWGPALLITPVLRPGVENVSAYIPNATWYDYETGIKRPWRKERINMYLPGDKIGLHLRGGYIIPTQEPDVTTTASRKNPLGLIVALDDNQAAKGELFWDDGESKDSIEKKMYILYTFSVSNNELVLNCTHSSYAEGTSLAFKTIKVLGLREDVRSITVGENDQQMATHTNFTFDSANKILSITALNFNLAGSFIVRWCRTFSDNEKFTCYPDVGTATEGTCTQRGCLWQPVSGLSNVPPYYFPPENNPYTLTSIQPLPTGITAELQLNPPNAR
T1 sequence (P23739 1014-1841 limits assumed): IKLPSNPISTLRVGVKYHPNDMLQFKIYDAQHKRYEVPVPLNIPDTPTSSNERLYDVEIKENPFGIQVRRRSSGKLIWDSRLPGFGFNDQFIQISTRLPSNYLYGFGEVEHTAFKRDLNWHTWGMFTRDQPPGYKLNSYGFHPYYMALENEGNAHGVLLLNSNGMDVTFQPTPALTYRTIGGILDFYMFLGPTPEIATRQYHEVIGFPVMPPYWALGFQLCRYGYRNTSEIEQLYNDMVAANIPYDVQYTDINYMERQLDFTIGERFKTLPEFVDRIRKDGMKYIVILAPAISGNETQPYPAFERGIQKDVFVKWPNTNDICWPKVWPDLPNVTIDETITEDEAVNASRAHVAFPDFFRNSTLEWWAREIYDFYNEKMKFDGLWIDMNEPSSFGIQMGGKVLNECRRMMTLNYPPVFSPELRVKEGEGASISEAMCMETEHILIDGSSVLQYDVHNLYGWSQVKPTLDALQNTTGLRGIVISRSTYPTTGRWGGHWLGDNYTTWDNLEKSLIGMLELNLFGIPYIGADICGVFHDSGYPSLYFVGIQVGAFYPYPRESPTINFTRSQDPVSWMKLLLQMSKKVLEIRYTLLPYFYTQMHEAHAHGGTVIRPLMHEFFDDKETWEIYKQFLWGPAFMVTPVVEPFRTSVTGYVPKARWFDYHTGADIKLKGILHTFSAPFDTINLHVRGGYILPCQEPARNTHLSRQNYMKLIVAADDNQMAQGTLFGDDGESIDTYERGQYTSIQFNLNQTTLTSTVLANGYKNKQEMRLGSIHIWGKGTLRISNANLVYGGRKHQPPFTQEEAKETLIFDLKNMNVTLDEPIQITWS
Chain of Sucrase-isomaltase, intestinal (Rattus norvegicus) (P23739 1-1013 limits assumed): as the sequence (P23739 1-1013 limits assumed) above
Chain of Sucrase-isomaltase, intestinal (Rattus norvegicus) (P23739 1014-1841 limits assumed): as the sequence (P23739 1014-1841 limits assumed) above
Chain of Lactase/phlorizin hydrolase (Rattus norvegicus) (Q02401 868-1928 limits assumed): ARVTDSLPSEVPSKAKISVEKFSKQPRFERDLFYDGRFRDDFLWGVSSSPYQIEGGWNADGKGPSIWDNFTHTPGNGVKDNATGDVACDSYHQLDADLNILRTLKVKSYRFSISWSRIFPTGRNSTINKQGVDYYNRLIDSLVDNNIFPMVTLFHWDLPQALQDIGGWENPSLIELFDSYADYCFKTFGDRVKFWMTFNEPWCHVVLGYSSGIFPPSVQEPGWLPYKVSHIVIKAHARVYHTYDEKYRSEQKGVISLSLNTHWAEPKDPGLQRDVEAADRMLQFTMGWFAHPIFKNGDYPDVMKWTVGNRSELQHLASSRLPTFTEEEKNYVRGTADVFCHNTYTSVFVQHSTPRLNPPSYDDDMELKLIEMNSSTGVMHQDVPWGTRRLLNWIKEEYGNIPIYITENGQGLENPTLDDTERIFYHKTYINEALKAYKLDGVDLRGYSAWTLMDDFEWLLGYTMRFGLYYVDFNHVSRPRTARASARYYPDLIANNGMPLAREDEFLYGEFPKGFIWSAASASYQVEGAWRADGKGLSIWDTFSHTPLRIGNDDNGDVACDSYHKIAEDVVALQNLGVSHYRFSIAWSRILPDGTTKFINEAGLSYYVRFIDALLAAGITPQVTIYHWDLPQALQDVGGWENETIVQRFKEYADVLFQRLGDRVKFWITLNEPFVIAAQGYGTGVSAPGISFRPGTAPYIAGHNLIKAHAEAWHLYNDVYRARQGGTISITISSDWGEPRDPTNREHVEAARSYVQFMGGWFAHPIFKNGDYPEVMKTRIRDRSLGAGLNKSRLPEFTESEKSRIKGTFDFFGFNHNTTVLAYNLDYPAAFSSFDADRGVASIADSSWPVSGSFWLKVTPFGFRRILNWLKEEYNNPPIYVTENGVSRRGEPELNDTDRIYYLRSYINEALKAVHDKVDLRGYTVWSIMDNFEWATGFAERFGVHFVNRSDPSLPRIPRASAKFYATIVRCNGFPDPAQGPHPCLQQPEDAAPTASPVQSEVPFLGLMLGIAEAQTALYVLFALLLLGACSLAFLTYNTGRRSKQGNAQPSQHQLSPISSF
Chain of Lysosomal alpha-glucosidase (Rattus norvegicus) (Q6P7A9 whole entry): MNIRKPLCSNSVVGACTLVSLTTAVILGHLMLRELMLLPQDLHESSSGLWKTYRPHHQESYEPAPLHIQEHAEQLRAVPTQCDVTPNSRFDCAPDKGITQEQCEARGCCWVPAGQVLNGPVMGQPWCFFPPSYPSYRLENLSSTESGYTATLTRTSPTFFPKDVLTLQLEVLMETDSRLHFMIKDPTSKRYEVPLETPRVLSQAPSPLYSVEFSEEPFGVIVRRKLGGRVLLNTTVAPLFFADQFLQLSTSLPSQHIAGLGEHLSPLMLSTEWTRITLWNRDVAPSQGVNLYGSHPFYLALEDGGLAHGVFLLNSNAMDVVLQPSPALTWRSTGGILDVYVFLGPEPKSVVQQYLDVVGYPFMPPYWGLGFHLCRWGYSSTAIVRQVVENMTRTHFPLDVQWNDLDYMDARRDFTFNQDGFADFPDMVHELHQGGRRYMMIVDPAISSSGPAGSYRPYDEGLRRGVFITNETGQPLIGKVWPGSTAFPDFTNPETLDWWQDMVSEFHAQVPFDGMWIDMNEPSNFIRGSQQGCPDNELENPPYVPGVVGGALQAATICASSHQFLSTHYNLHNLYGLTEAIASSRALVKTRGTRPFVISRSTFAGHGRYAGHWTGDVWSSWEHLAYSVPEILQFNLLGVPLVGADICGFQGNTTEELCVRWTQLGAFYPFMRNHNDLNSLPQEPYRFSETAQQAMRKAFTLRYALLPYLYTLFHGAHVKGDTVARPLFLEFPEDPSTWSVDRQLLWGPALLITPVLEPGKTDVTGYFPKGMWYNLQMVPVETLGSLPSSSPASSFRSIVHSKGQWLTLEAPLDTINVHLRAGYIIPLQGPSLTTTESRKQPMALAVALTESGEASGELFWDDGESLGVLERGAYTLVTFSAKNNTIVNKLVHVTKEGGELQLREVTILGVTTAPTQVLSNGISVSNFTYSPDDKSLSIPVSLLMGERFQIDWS

inhibition (Rattus norvegicus)	IC50 [1]	inhibition [2]	inhibition [3]	inhibition [4]	IC50 [5]	SMILES
< 50%	392 µM	< 50%	< 50%	< 50%	–	CCCC[C@H]1N[C@@H](CO)[C@H](O)[C@H]1O
< 50%	0.24 µM	< 50%	–	–	16 µM	CCCCCCC[C@@H]1N[C@@H](CO)[C@H](O)[C@H]1O
< 50%	13 µM	< 50%	–	< 50%	–	CCCCCCCCCCC[C@@H]1N[C@@H](CO)[C@H](O)[C@H]1O
< 50%	0.19 µM	< 50%	–	–	18 µM	CCCCC[C@@H]1N[C@@H](CO)[C@H](O)[C@H]1O
< 50%	0.11 µM	< 50%	–	–	11 µM	CCCCCC[C@@H]1N[C@@H](CO)[C@H](O)[C@H]1O
< 50%	1.4 µM	< 50%	–	–	171 µM	CCCCCCCCC[C@@H]1N[C@@H](CO)[C@H](O)[C@H]1O
< 50%	8.8 µM	< 50%	–	< 50%	–	CCCC[C@H]1[C@H](O)[C@@H](O)[C@H](CO)N1CCCC
< 50%	–	< 50%	–	< 50%	–	C[C@H]1O[C@H](O[C@H]2[C@H](O)[C@@H](O)[C@@H](O[C@H]3[C@H](O)[C@@H](O)C(O)O[C@@H]3CO)O[C@@H]2CO)[C@H](O)[C@@H](O)[C@@H]1N[C@H]1C=C(CO)[C@@H](O)[C@H](O)[C@H]1O (some centres not stated)
< 50%	–	< 50%	–	–	–	OCCN1C[C@H](O)[C@@H](O)[C@H](O)[C@H]1CO [MIGLITOL]
< 50%	590 µM	< 50%	–	< 50%	–	CCCCCCCC[C@H]1N[C@@H](CO)[C@H](O)[C@H]1O
< 50%	0.37 µM	< 50%	–	–	5.2 µM	OCC(CO)N[C@H]1C[C@](O)(CO)[C@@H](O)[C@H](O)[C@H]1O [VOGLIBOSE]
< 50%	0.68 µM	< 50%	–	–	11 µM	CC[C@@H]1N[C@@H](CO)[C@H](O)[C@H]1O
< 50%	0.26 µM	< 50%	–	–	47 µM	CCC[C@@H]1N[C@@H](CO)[C@H](O)[C@H]1O
< 50%	0.032 µM	< 50%	–	–	4.7 µM	CCCC[C@@H]1N[C@@H](CO)[C@H](O)[C@H]1O
< 50%	1.7 µM	< 50%	–	–	606 µM	CCCCCCCCCC[C@@H]1N[C@@H](CO)[C@H](O)[C@H]1O
< 50%	0.45 µM	< 50%	–	–	75 µM	CCCCCCCC[C@@H]1N[C@@H](CO)[C@H](O)[C@H]1O
